This note sets out measurements from US9382254B2, “Compounds and pharmaceutical compositions thereof for the treatment of cystic fibrosis” (Galapagos NV, priority 2013, dated 2016).

Where only a bound is given, the exact number is not on record here.

The EC50 is the midpoint of the concentration-response curve. High values mean lower potency in that assay, low ones higher potency in that assay.

The target of this experiment is T1, CFTR ΔF508 mutant (Homo sapiens, UniProt P13569, DEL508-508).
T1 construct: expressed in transfected cells; host or cells: CFBE41o- (adenoviral transduction)
T1 sequence (P13569 with tags, fused parts or gaps DEL508-508): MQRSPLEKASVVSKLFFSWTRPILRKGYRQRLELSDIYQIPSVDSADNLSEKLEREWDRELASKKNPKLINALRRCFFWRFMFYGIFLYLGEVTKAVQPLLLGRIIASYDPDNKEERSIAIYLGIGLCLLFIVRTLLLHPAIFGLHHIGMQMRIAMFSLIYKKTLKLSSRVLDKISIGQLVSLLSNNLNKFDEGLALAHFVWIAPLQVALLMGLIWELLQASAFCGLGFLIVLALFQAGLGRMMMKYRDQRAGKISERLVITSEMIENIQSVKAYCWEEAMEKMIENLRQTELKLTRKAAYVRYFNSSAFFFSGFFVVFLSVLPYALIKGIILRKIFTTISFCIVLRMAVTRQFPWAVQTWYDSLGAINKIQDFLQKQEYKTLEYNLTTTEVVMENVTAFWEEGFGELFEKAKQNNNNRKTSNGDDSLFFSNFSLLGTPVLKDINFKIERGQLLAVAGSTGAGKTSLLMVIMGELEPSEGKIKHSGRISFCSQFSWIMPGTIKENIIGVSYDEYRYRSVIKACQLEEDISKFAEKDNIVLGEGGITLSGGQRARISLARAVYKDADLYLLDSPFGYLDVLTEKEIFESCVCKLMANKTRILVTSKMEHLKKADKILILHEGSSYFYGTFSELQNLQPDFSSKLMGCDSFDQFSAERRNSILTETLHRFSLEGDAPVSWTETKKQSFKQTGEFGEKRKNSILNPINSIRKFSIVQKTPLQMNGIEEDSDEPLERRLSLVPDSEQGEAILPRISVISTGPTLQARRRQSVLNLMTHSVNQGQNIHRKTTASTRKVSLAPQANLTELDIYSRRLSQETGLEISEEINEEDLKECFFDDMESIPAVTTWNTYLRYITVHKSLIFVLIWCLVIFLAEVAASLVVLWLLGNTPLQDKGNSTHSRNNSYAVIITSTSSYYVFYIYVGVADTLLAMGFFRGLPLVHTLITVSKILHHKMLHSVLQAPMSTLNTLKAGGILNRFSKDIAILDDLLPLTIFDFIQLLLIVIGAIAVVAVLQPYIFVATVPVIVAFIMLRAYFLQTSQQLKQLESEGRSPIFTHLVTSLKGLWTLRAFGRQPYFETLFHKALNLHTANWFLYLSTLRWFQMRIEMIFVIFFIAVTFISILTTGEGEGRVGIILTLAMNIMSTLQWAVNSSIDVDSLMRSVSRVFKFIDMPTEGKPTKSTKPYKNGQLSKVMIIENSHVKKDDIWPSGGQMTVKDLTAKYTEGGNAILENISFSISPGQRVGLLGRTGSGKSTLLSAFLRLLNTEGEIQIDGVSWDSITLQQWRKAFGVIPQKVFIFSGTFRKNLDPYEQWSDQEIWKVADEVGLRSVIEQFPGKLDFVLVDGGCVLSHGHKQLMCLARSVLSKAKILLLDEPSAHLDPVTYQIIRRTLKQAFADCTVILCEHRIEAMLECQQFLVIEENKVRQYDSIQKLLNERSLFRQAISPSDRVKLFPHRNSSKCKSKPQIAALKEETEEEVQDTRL
Nature of the experiment: YFP-halide influx assay for the CFTR-ΔF508 mutation, gluconate buffer. Format: cell-based. Particulars: CFBE41o- cells, forskolin 10.67 μM. The text has this: The YFP halide influx assay measures the functionality of the cystic fibrosis Transmembrane Conductance regulator (CFTR) channels in the cystic fibrosis bronchial epithelium cell line CFBE41o-. The assay is used to evaluate the capacity of compounds to increase the open probability of existing CFTR channels in the membrane. It makes use of the observation that the yellow fluorescent protein (YFP) variant YFP H148Q, I152L has its fluorescence substantially quenched by halide ions like Cl^− and I^−. (Galietta, Haggie, & Verkman, 2001) (Nagai, et al., 2002)
For this purpose, CFBE41o-cells are seeded in 96 well plates (6000 CFBE cells/well). One day after seeding, the CFBE cells are transduced with adenoviral vectors that direct the expression of the CFTR ΔF508 mutant and of the YFP reporter. Cells are incubated at 27° C., 5% CO2 for 24 hours so as to allow for the proper folding and migration to the membrane of the CFTR channel or treated with a CFTR modulator during 24 hours at 37° C.
The I^−-induced quenching of fluorescence is recorded immediately after injection of I^− for 7 seconds. The capacity of a compound to increase the channel opening is directly correlated with the decrease in fluorescence, and is expressed as (1-(fluorescence after 7 seconds (F)/fluorescence before injection (F0))) and an EC50 can be derived from a (1-F/F0) vs compound concentration plot.
For the compound `NC(=O)c1cc(S(=O)(=O)c2cccc(F)c2)sc1NC(=O)c1ccccc1F` [Compound 115, 2-(2-fluorobenzamido)-5-(3-fluorophenylsulfonyl) thiophene-3-carboxamide], the half-maximal effective concentration (EC50) was 235 nM.

For `Cn1ccc(C(=O)Nc2sc(S(=O)(=O)N3CCCCC3)cc2C(N)=O)n1` [Compound 30, N-(3-carbamoyl-5-(piperidin-1-ylsulfonyl)thiophen-2-yl)-1-methyl-1H-pyrazole-3-carboxamide], the response was half-maximal at 910 nM (EC50).

`NC(=O)c1cc(S(=O)(=O)N(Cc2cccc(F)c2)C2CC2)sc1NC(=O)c1ccccc1F` [Compound 156, 5-(N-cyclopropyl-N-(3-fluorobenzyl)sulfamoyl)-2-(2-fluorobenzamido) thiophene-3-carboxamide]: the EC50 was 361 nM.

With `CN(C)C1CCN(S(=O)(=O)c2cc(C(N)=O)c(NC(=O)c3ccccc3F)s2)CC1` [Compound 174, 5-(4-(dimethylamino)piperidin-1-ylsulfonyl)-2-(2-fluorobenzamido) thiophene-3-carboxamide], the concentration giving a half-maximal response (EC50) turned out to be 2370 nM.

`NC(=O)c1cc(S(=O)(=O)N2CCOCC2)sc1NC(=O)c1ncccn1` [Compound 81, N-(3-carbamoyl-5-(morpholinosulfonyl)thiophen-2-yl) pyrimidine-2-carboxamide] yielded an EC50 of over 1000 nM.

Consider `CCCC(=O)Nc1sc(S(=O)(=O)N2CCCCC2)cc1C(N)=O` [Compound 28, 2-butyramido-5-(piperidin-1-ylsulfonyl)thiophene-3-carboxamide], for which the EC50 was found to be 624 nM.

Compound `CS(=O)(=O)c1cc(C(N)=O)c(NC(=O)c2ccccc2O)s1` [Compound 211, 2-(2-hydroxybenzamido)-5-(methylsulfonyl)thiophene-3-carboxamide] had an EC50 of 320 nM.

`COc1ccc(C(=O)Nc2sc(S(=O)(=O)N3CCCCC3)cc2C(N)=O)cc1` [Compound 21, 2-(4-methoxybenzamido)-5-(piperidin-1-ylsulfonyl)thiophene-3-carboxamide] registered an EC50 of 484 nM.

Compound `NC(=O)c1cc(S(=O)(=O)N2CCCCC2)sc1NC(=O)C1CCC(F)(F)CC1` [Compound 37, 2-(4,4-difluorocyclohexanecarboxamide)-5-(piperidin-1-ylsulfonyl) thiophene-3-carboxamide] displayed a half-maximal effective concentration (EC50) of 293 nM.

With `Cc1ccc(C(=O)Nc2sc(S(=O)(=O)N(C)C)cc2C(N)=O)s1` [Compound 15, N-(3-carbamoyl-5-(N,N-dimethylsulfamoyl)thiophen-2-yl)-5-methylthiophene-2-carboxamide], the EC50 was found to be 169 nM.

In turn, `NC(=O)c1cc(S(=O)(=O)N2CCOCC2)sc1NC(=O)C1(O)CCOCC1` [Compound 200, N-(3-carbamoyl-5-(morpholinosulfonyl)thiophen-2-yl)-4-hydroxytetrahydro-2H-pyran-4-carboxamide] gave an EC50 of 3330 nM.

`CC(C)(C)c1ccc(C(=O)Nc2sc(S(=O)(=O)N3CCOCC3)cc2C(N)=O)cc1` [Compound 49, 2-(4-tert-butylbenzamido)-5-(morpholinosulfonyl) thiophene-3-carboxamide] gave an EC50 of 842 nM.

Regarding `NC(=O)c1cc(S(=O)(=O)N2CCOCC2)sc1NC(=O)c1ncccc1F` [Compound 77, N-(3-carbamoyl-5-(morpholinosulfonyl)thiophen-2-yl)-3-fluoropicolinamide], the EC50 is 3330 nM.

In the case of `NC(=O)c1cc(S(=O)(=O)c2ccccn2)sc1NC(=O)c1ccccc1F` [Compound 178, 2-(2-fluorobenzamido)-5-(pyridin-2-ylsulfonyl) thiophene-3-carboxamide], the response was half-maximal at 524 nM (EC50).

In the case of `NC(=O)c1cc(S(=O)(=O)N2CCOCC2)sc1NC(=O)C1(O)CC1` [Compound 131, 2-(1-hydroxycyclopropanecarboxamido)-5-(morpholinosulfonyl) thiophene-3-carboxamide], the midpoint of the response, the EC50, lay at 921 nM.

Compound `N#CC1(C(=O)Nc2sc(S(=O)(=O)N3CCCCC3)cc2C(N)=O)CC1` [Compound 58, 2-(1-cyanocyclopropanecarboxamido)-5-(piperidin-1-ylsulfonyl) thiophene-3-carboxamide] showed an EC50 of 3330 nM.

On to `CN(Cc1ccccc1)S(=O)(=O)c1cc(C(N)=O)c(NC(=O)c2ccccc2F)s1` [Compound 72, 5-(N-benzyl-N-methylsulfamoyl)-2-(2-fluorobenzamido) thiophene-3-carboxamide], for which the midpoint of the response, the EC50, lay at 326 nM.

In the case of `CN(C1CCOCC1)S(=O)(=O)c1cc(C(N)=O)c(NC(=O)c2ccccc2F)s1` [Compound 161, 2-(2-fluorobenzamido)-5-(N-methyl-N-(tetrahydro-2H-pyran-4-yl)sulfamoyl) thiophene-3-carboxamide], the EC50 worked out at 221 nM.

Regarding `Cc1c(S(=O)(=O)N2CCOCC2)sc(NC(=O)c2ccccc2C(F)(F)F)c1C(N)=O` [Compound 105, 4-methyl-5-(morpholinosulfonyl)-2-(2-(trifluoromethyl)benzamido) thiophene-3-carboxamide], the EC50 stood at 396 nM.

Regarding `CC(C)(O)C(=O)Nc1sc(S(=O)(=O)N2CCOCC2)cc1C(N)=O` [Compound 203, 2-(2-hydroxy-2-methylpropanamido)-5-(morpholinosulfonyl) thiophene-3-carboxamide], a half-maximal response (EC50) required 3330 nM.

Consider `Cc1ccc(C(=O)Nc2sc(S(=O)(=O)C3CCOCC3)cc2C(N)=O)s1` [Compound 84, N-(3-carbamoyl-5-(tetrahydro-2H-pyran-4-ylsulfonyl)thiophen-2-yl)-5-methylthiophene-2-carboxamide], for which the EC50 came to 3190 nM.

Take `NC(=O)c1cc(S(=O)(=O)N2Cc3ccccc3C2)sc1NC(=O)c1ccccc1F` [Compound 151, 2-(2-fluorobenzamido)-5-(isoindolin-2-ylsulfonyl)thiophene-3-carboxamide]: the concentration giving a half-maximal response (EC50) turned out to be 357 nM.

In turn, `CC(C)(C)c1ccc(C(=O)Nc2sc(S(=O)(=O)N3CCCCC3)cc2C(N)=O)s1` [Compound 23, 5-tert-butyl-N-(3-carbamoyl-5-(piperidin-1-ylsulfonyl)thiophen-2-yl) thiophene-2-carboxamide] had an EC50 of 642 nM.

With `CN(C)S(=O)(=O)c1cc(C(N)=O)c(NC(=O)c2cc[nH]n2)s1` [Compound 75, N-(3-carbamoyl-5-(N,N-dimethylsulfamoyl)thiophen-2-yl)-1H-pyrazole-3-carboxamide], the EC50 was 418 nM.

Consider `CN(Cc1ccc(F)cc1)S(=O)(=O)c1cc(C(N)=O)c(NC(=O)c2ccccc2F)s1` [Compound 106, 2-(2-fluorobenzamido)-5-(N-(4-fluorobenzyl)-N-methylsulfamoyl) thiophene-3-carboxamide], for which the EC50 is 213 nM.

As for `NC(=O)c1cc(S(=O)(=O)N2CCCCC2)sc1NC(=O)C1(c2ccc(Cl)cc2)CC1` [Compound 61, 2-(1-(4-chlorophenyl)cyclopropanecarboxamido)-5-(piperidin-1-ylsulfonyl) thiophene-3-carboxamide], the EC50 is over 1000 nM.

For the compound `NC(=O)c1cc(S(=O)(=O)N2CCOCC2)sc1NC(=O)c1ccc(F)cc1F` [Compound 138, 2-(2,4-difluorobenzamido)-5-(morpholinosulfonyl) thiophene-3-carboxamide], a half-maximal response (EC50) required 313 nM.

`NC(=O)c1cc(S(=O)(=O)N2CCC(F)(F)CC2)sc1NC(=O)c1ccccc1F` [Compound 66, 5-(4,4-difluoropiperidin-1-ylsulfonyl)-2-(2-fluorobenzamido)thiophene-3-carboxamide] gave an EC50 of 153 nM.

In turn, `CN(C)C1CN(S(=O)(=O)c2cc(C(N)=O)c(NC(=O)c3ccccc3F)s2)C1` [Compound 187, 5-(3-(dimethylamino)azetidin-1-ylsulfonyl)-2-(2-fluorobenzamido)thiophene-3-carboxamide] displayed an EC50 of 1600 nM.

`Cn1nc(C(C)(C)C)cc1C(=O)Nc1sc(S(=O)(=O)N2CCOCC2)cc1C(N)=O` [Compound 167, 3-tert-butyl-N-(3-carbamoyl-5-(morpholinosulfonyl)thiophen-2-yl)-1-methyl-1H-pyrazole-5-carboxamide] displayed a half-maximal effective concentration (EC50) of 3050 nM.

In turn, `CC(C)c1cc(C(=O)Nc2sc(S(=O)(=O)N3CCOCC3)cc2C(N)=O)c(O)c(C(C)C)c1` [Compound 201, 2-(2-hydroxy-3,5-diisopropylbenzamido)-5-(morpholinosulfonyl) thiophene-3-carboxamide] registered an EC50 of 3330 nM.

`CC(C)(C)C(=O)Nc1sc(S(=O)(=O)c2ccc(F)c(F)c2)cc1C(N)=O` [Compound 120, 5-(3,4-difluorophenylsulfonyl)-2-pivalamidothiophene-3-carboxamide] showed an EC50 of 488 nM.

`NC(=O)c1cc(S(=O)(=O)N2CCCCC2)sc1NC(=O)c1ccc2ncsc2c1` [Compound 12, N-(3-carbamoyl-5-(piperidin-1-ylsulfonyl)thiophen-2-yl)benzo[d] thiazole-6-carboxamide] showed an EC50 of 887 nM.

In the case of `NC(=O)c1cc(S(=O)(=O)N2CCCCC2)sc1NC(=O)c1cnn2cccnc12` [Compound 41, N-(3-carbamoyl-5-(piperidin-1-ylsulfonyl)thiophen-2-yl)pyrazolo[1,5-a]pyrimidine-3-carboxamide], the EC50 was determined as 9840 nM.

With `NC(=O)c1cc(S(=O)(=O)N2CCCCC2)sc1NC(=O)c1ccc(F)cc1` [Compound 26, 2-(4-fluorobenzamido)-5-(piperidin-1-ylsulfonyl)thiophene-3-carboxamide], the EC50 came to 289 nM.
